Source: patent publication US7045147B1, “Controlled release peroral compositions of levosimendan” (Orion Corporation, priority 1998, dated 2006)

Tests used:
[1] = Pharmacokinetics of levosimendan and its active metabolite (elimination half-life, absorption); format: in vivo, human; conditions: active first-pass metabolite of levosimendan
Description: The hemodynamic effects of levosimendan in man are described in Sundberg, S. et al., Am. J. Cardiol., 1995; 75: 1061-1066. Pharmacokinetics of levosimendan in man after i.v. and oral dosing is described in Sandell, E. -P. et al., J. Cardiovasc. Pharmacol., 26(Suppl. I), S57-S62, 1995. The use of levosimendan in the treatment of myocardial ischemia is described in WO 93/21921. Clinical studies have confirmed the beneficial effects of levosimendan in heart failure patients.
Firstly, the elimination half-life of levosimendan in human is short, about 1 h. Therefore, using conventional immediate release oral formulations levosimendan should be administered frequently during the day. Secondly, the gastrointestinal absorption of levosimendan is rapid. Therefore, using immediate release oral formulations high peak plasma concentrations of levosimendan are reached rapidly and abruptly, typically within 1 hour. High plasma concentrations of levosimendan tend to increase heart rate which is an undesired effect in heart failure patients.
The discovery of the active metabolite and its formation route makes it now possible to design controlled release preparations which show a reduced occurrence of undesired effects and which are well suited for the treatment of heart failure patients.

[2] = Steady-state clinical study: plasma levels of levosimendan and metabolite (II) after 7 days levosimendan administration; format: in vivo; conditions: human, po, 1 mg levosimendan orally three times a day for 7 days, healthy volunteers, formulation as Formulation 3 except 1 mg levosimendan and Avicel PH-200 51.0 mg, N 14, read-out: Mean plasma level of levosimendan (day 7)
Experimental: The steady-state plasma level for metabolite (II) can be measured for any composition by administering the composition of levosimendan to a volunteer or group of volunteers once or several times a day for several days until a steady state level of (II) is reached. The plasma levels of the active metabolite (II) can then be measured according to the procedure described in detail in Example 2.
The active metabolite (II) is added in 20 μl of phosphate buffer, pH 7.2 to 0.5 ml of analyte-free plasma. The amounts of analyte added are 0.100, 0.250, 0.500, 1.00, 2.50, 3.75, 5.00, 7.50 and 12.5 ng. After being vortexed for 20 seconds and left standing for 10 minutes, the 2500 pg of internal standard (R)-N-[4-(1,4,5,6-tetrahydro-4-ethyl-6-oxo-3-pyridazinyl)phenyl]acetamide is added in 20 μl of phosphate buffer, pH 7.2. The mixture is vortexed for 1 minute and left standing for 15 minutes. The calibration samples are alkalised with 50 μl of 0.1 M sodium hydroxide and vortexed for 20 seconds. […]
Determinations are carried out by using the selected reaction monitoring technique. […] The selected reaction monitoring chromatograms are recorded using a PE Sciex API 300 Data System.
Peak area ratios of analyte and its internal standard are plotted against concentrations. […] The limit of quantitation is 0.200 ng/ml. […]

[3] = cited from earlier work

Row | Compound | elimination half-life compared with levosimendan [1] | concentration at 1 h ([2]; 1 h after the last dose (day 7)) [ng/mL] | concentration at 4 h ([2]; 4 h after the last dose (day 7)) [ng/mL] | time to reach peak plasma concentrations ([3]; immediate release oral formulations) [h] | elimination half-life ([3]; in human)
1 | CC(=O)Nc1ccc(C2=NNC(=O)C[C@H]2C)cc1 [Metabolite (II), (R)-N-[4-(1,4,5,6-tetrahydro-4-methyl-6-oxo-3-pyridazinyl)phenyl]acetamide] | substantially longer than that of levosimendan |  |  |  | 
2 | CC1CC(=O)NN=C1c1ccc(NN=C(C#N)C#N)cc1 (single isomer, unassigned; (-)) [Levosimendan, (−)-[[4-(1,4,5,6-tetrahydro-4-methyl-6-oxo-3-pyridazinyl)phenyl]hydrazono]propanedinitrile] |  | 15.4 | 8.9 | ≤ 1 | about 1 h
